Experimental data from ChEMBL document CHEMBL5214930, “Discovery of the First Selective IDO2 Inhibitor As Novel Immunotherapeutic Avenues for Rheumatoid Arthritis” (J Med Chem, 2022).
One block for each compound: values may come before it. Active and inactive are the calls of the source. No cut-off for these calls is given here.

Legend:
HeLa [1] = assay: Antiproliferative activity against human HeLa cells; format: functional, cell-based
[2] = target: T1, Indoleamine 2,3-dioxygenase 2 (Homo sapiens) (UniProt Q6ZQW0); assay: Inhibition of recombinant human IDO2 in HeLa cells at […] relative to control; format: cell-based
T1 sequence (whole entry): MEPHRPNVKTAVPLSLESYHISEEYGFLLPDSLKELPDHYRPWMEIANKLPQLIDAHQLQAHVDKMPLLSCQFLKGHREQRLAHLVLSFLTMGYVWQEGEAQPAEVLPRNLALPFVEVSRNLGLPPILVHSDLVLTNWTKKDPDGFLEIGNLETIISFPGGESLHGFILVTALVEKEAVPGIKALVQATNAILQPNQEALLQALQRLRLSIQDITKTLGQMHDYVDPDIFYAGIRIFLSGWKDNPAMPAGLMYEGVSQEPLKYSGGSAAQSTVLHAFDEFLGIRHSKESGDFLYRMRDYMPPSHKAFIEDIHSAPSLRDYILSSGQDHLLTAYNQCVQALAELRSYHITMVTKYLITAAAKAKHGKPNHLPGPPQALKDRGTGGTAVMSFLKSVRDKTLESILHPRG

[3] = target: T1, Indoleamine 2,3-dioxygenase 2 (Homo sapiens); assay: Inhibition of recombinant human IDO2 in HeLa cells at 100 nM relative to control; format: cell-based
[4] = target: T2, Indoleamine 2,3-dioxygenase 1 (Homo sapiens, UniProt P14902); assay: Inhibition of recombinant human IDO1 in HeLa cells at 100 nM relative to control; format: cell-based
Target sequence in this assay (P14902 whole entry, looked up): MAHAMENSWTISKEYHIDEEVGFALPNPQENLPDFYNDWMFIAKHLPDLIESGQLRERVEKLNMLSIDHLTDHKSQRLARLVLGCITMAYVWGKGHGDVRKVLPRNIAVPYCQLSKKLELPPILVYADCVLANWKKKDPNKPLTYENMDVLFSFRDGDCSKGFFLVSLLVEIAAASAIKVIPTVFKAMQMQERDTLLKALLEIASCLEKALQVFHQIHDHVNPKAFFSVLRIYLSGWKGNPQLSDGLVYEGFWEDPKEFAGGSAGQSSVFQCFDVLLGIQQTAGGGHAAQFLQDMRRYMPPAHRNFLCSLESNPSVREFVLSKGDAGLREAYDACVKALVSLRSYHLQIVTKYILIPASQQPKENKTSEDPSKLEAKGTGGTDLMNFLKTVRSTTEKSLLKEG

HeLa [5] = assay: Antiproliferative activity against human HeLa cells at 5 uM; format: functional
[6] = target: T2, Indoleamine 2,3-dioxygenase 1; assay: Inhibition of IDO1 (unknown origin)
Target sequence in this assay (P14902 whole entry): as the sequence (P14902 whole entry, looked up) above

[7] = target: T3, Indoleamine 2,3-dioxygenase 2 (Homo sapiens, UniProt Q6ZQW0); assay: Inhibition of IDO2 (unknown origin)
T3 sequence (Q6ZQW0 whole entry): T1 sequence (whole entry)

[8] = target: Tryptophan 2,3-dioxygenase (Homo sapiens, UniProt P48775); assay: Inhibition of TDO (unknown origin)
Chain of Tryptophan 2,3-dioxygenase (P48775 whole entry): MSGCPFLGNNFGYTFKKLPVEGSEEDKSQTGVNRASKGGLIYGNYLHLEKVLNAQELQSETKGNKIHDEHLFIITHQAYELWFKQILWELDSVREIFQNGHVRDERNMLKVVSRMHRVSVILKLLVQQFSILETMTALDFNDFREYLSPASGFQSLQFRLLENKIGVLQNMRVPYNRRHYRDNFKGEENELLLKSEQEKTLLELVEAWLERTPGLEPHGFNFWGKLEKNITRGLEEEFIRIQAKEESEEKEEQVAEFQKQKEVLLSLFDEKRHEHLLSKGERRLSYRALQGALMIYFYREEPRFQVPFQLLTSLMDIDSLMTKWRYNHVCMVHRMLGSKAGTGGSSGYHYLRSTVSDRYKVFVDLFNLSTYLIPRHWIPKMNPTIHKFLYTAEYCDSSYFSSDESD

[9] = Metabolic stability in human liver microsome assessed as intrinsic permeability measured per mg of protein; format: ADME; conditions: microsomes
[10] = Metabolic stability in human liver microsome assessed as binding constant; format: ADME; conditions: microsomes
[11] = target: T3, Indoleamine 2,3-dioxygenase 2; assay: Inhibition of human IDO2
Rattus norvegicus [12] = assay: Antiarthritic activity against adjuvant arthritis-induced po dosed Sprague-Dawley rat model assessed as decrease in pannus formation administered from day 21 to 36 post CFA injection and measured every 3 days by H and E staining method; format: functional, organism-based; conditions: dose 50-100 mg/kg, time 15.0 day, DDE = dose-dependent effect
Rattus norvegicus [13] = assay: Antiarthritic activity against adjuvant arthritis-induced po dosed Sprague-Dawley rat model assessed as decrease in bone erosion of cartilage administered from day 21 to 36 post CFA injection and measured every 3 days by H and E staining method; format: functional, organism-based; conditions: dose 50-100 mg/kg, time 15.0 day, DDE = dose-dependent effect
Mus musculus [14] = assay: Antiinflammatory activity against xylene-induced ear swelling ICR mouse model assessed as swelling rate at 100 mg/kg, IG measured after 1 hr (Activity = 58.21 +/- 12.79%); format: functional
Rattus norvegicus [15] = assay: Antiarthritic activity against adjuvant arthritis-induced Sprague-Dawley rat model assessed as decrease in paw swelling at 30 to 120 mg/kg, po administered from day 21 to 36 post CFA injection and measured every 3 days; format: functional, organism-based; conditions: dose 30-120 mg/kg, time 15.0 day
[16] = Metabolic stability in human liver microsome assessed as half life; format: ADME; conditions: liver microsomes
Rattus norvegicus [17] = assay: Antiarthritic activity against adjuvant arthritis-induced Sprague-Dawley rat model assessed as decrease in TNF-alpha level at 30 to 120 mg/kg, po administered from day 21 to 36 post CFA injection and measured every 3 days; format: functional, organism-based; conditions: dose 30-120 mg/kg, time 15.0 day
[18] = Half life in Sprague-Dawley rat at 1 mg/kg, iv; format: ADME, organism-based; conditions: in vivo
Mus musculus [19] = assay: Antiarthritic activity against collagen-induced arthritis DBA/1J mouse model assessed as decrease in IL-33 level at 50 to 100 mg/kg, ip administered from day 57 to 74 post CFA injection and measured every 3 days by immunohistochemical staining method; format: functional, organism-based; conditions: dose 50-100 mg/kg, time 17.0 day
[20] = Oral bioavailability in Sprague-Dawley rat at 10 mg/kg; format: ADME, organism-based; conditions: in vivo
[21] = Cmax in Sprague-Dawley rat at 10 mg/kg, po; format: ADME, organism-based; parameters: dose 10 mg/kg, route po; conditions: in vivo
[22] = AUC(0 to infinity) in Sprague-Dawley rat at 10 mg/kg, po; format: ADME, organism-based; parameters: time infinity, dose 10 mg/kg, route po; conditions: in vivo
[23] = MRT (0 to infinity) in Sprague-Dawley rat at 10 mg/kg, po; format: ADME, organism-based; conditions: in vivo
[24] = AUC(0 to infinity) in Sprague-Dawley rat at 1 mg/kg, iv; format: ADME, organism-based; parameters: time infinity, dose 1 mg/kg, route iv; conditions: in vivo
[25] = Tmax in Sprague-Dawley rat at 10 mg/kg, po; format: ADME, organism-based; conditions: in vivo
[26] = MRT (0 to infinity) in Sprague-Dawley rat at 1 mg/kg, iv; format: ADME, organism-based; conditions: in vivo
Mus musculus [27] = assay: Antiarthritic activity against collagen-induced arthritis DBA/1J mouse model assessed as paw swelling at 100 mg/kg, ip administered from day 57 to 74 post CFA injection and measured every 3 days; format: functional, organism-based; conditions: time 17.0 day
[28] = Clearance in Sprague-Dawley rat at 1 mg/kg, iv; format: ADME, organism-based; conditions: in vivo
Rattus norvegicus [29] = assay: Antiarthritic activity against adjuvant arthritis-induced Sprague-Dawley rat model assessed as decrease in IL-6 level at 30 to 120 mg/kg, po administered from day 21 to 36 post CFA injection and measured every 3 days; format: functional, organism-based; conditions: dose 30-120 mg/kg, time 15.0 day
Mus musculus [30] = assay: Antiarthritic activity against collagen-induced arthritis ip dosed DBA/1J mouse model assessed as paw swelling administered from day 57 to 74 post CFA injection and measured every 3 days; format: functional, organism-based; conditions: dose 25-100 mg/kg, time 17.0 day, DDE = dose-dependent effect
Mus musculus [31] = assay: Antiinflammatory activity against xylene-induced ear swelling ICR mouse model assessed as swelling inhibition ratio at 100 mg/kg, IG measured after 1 hr; format: functional; parameters: scale not given: the % may be the effect or the level left
Mus musculus [32] = assay: Antiarthritic activity against collagen-induced arthritis DBA/1J mouse model assessed as decrease in inflammation at 100 mg/kg, ip administered from day 57 to 74 post CFA injection and measured every 3 days by H and E staining method; format: functional, organism-based; conditions: time 17.0 day
[33] = Metabolic stability in human liver microsome assessed as intrinsic clearance; format: ADME; conditions: microsomes
Mus musculus [34] = assay: Antiarthritic activity against collagen-induced arthritis DBA/1J mouse model assessed as increase in cartilage at 100 mg/kg, ip administered from day 57 to 74 post CFA injection and measured every 3 days by H and E staining method; format: functional, organism-based; conditions: time 17.0 day
Mus musculus [35] = assay: Antiarthritic activity against collagen-induced arthritis DBA/1J mouse model assessed as decrease in IL-18 level at 50 to 100 mg/kg, ip administered from day 57 to 74 post CFA injection and measured every 3 days by immunohistochemical staining method; format: functional, organism-based; conditions: dose 50-100 mg/kg, time 17.0 day
Rattus norvegicus [36] = assay: Antiarthritic activity against adjuvant arthritis-induced po dosed Sprague-Dawley rat model assessed as decrease in inflammatory cell infiltration administered from day 21 to 36 post CFA injection and measured every 3 days by H and E staining method; format: functional, organism-based; conditions: dose 50-100 mg/kg, time 15.0 day, DDE = dose-dependent effect
[37] = Apparent volume of distribution in Sprague-Dawley rat at 1 mg/kg, iv; format: ADME, organism-based; conditions: in vivo, read-out: Vz
[38] = target: T2, Indoleamine 2,3-dioxygenase 1; assay: Inhibition of human IDO1
Target sequence in this assay (P14902 whole entry): as the sequence (P14902 whole entry, looked up) above

Rattus norvegicus [39] = assay: Antiarthritic activity against adjuvant arthritis-induced Sprague-Dawley rat model assessed as decrease in index score at 30 to 120 mg/kg, po administered from day 21 to 36 post CFA injection and measured every 3 days; format: functional, organism-based; conditions: dose 30-120 mg/kg, time 15.0 day
[40] = Half life in Sprague-Dawley rat at 10 mg/kg, po; format: ADME, organism-based; conditions: in vivo
Mus musculus [41] = assay: Antiarthritic activity against collagen-induced arthritis DBA/1J mouse model assessed as decrease in bone erosion at 100 mg/kg, ip administered from day 57 to 74 post CFA injection and measured every 3 days by H and E staining method; format: functional, organism-based; conditions: time 17.0 day

- EC50 (HeLa [1]): 611 nM
- inhibition [2]: 61%
- inhibition [3]: 14%
- inhibition [4]: 20%
Structure (SMILES): Cc1cc(Br)cc(N/C(=N\O)c2nonc2NCCn2cc(CNC(=O)c3ccccn3)nn2)c1

- EC50 (HeLa [1]): 4350 nM
- inhibition [2]: 2%
- inhibition [4]: 5%
Structure (SMILES): O=C(NCc1cn(CCNc2nonc2/C(=N/O)NCc2ccccc2Br)nn1)c1ccccn1

- EC50 (HeLa [1]): 1380 nM
- inhibition [2]: 30%
- inhibition [3]: 5%
- inhibition [4]: 4%
Structure (SMILES): O=C(NCc1cn(CCNc2nonc2/C(=N/O)Nc2ccc(F)cc2)nn1)c1ccccn1

- inhibition [2]: 15%
- inhibition [4]: 3%
Structure (SMILES): C[C@H](N/C(=N\O)c1nonc1NCCn1cc(CNC(=O)c2ccccn2)nn1)c1cccc(Br)c1
- Activity (HeLa [5]): 17.87%

- EC50 (HeLa [1]): 3420 nM
- inhibition [2]: 1%
- inhibition [4]: 0%
Structure (SMILES): O=C(NCc1cn(CCNc2nonc2/C(=N/O)NCc2ccc(Br)cc2)nn1)c1ccccn1

- EC50 (HeLa [1]): 1450 nM
- inhibition [2]: 52%
- inhibition [3]: 15%
- inhibition [4]: 11%
Structure (SMILES): O=C(NCc1cn(CCNc2nonc2/C(=N/O)Nc2cc(Br)cc(Br)c2)nn1)c1ccccn1

- inhibition [2]: 15%
- inhibition [4]: 14%
Structure (SMILES): C[C@H](N/C(=N\O)c1nonc1NCCn1cc(CNC(=O)c2ccc[nH]2)nn1)c1cccc(Br)c1
- Activity (HeLa [5]): 22.74%

- EC50 (HeLa [1]): 234 nM
- inhibition [2]: 38%
- inhibition [3]: 16%
- inhibition [4]: 52%
Structure (SMILES): O=C(NCc1cn(CCNc2nonc2/C(=N/O)Nc2ccc(F)c(Cl)c2)nn1)c1ccccn1

- IC50 [6]: 500 nM
- IC50 [7]: 18400 nM
- IC50 [8]: 760 nM
Structure (SMILES): CN1CCN(c2ccc3nc4n(c(=O)c3c2)-c2ccc(F)cc2C4=O)CC1

- Pm [9]: 0.25 mL⁻¹
- K [10]: 0.014 min⁻¹
- IC50 [11]: 112 nM
- half-life [16]: 49.5 min
- half-life [18]: 41.4 min
- EC50 (HeLa [1]): 633 nM
- inhibition [2]: 97%
- bioavailability [20]: 17.9%
- Cmax [21]: 154 ng/mL
- AUC(0-inf) [22]: 670 ng·h/mL
- MRT inf [23]: 449 min
- AUC(0-inf) [24]: 375 ng·h/mL
- Tmax [25]: 45 min
- MRT inf [26]: 33 min
- clearance [28]: 44.5 mL/min/kg
- inhibition [3]: 41%
- CLH [33]: 0.056 mL/min
- Vd [37]: 2.68 L/kg
- IC50 [38]: 411 nM
- half-life [40]: 121 min
- inhibition [4]: 26%
Structure (SMILES): O=C(NCc1cn(CCNc2nonc2/C(=N/O)NCc2cccc(Br)c2)nn1)c1ccccn1
- Activity (Rattus norvegicus [12]): Dde
- Activity (Rattus norvegicus [13]): Dde
- Activity (Mus musculus [14]): 20.19%
- Activity (Rattus norvegicus [15]): Active
- Activity (Rattus norvegicus [17]): Active
- Activity (Mus musculus [19]): Active
- Activity (Mus musculus [27]): Active
- Activity (Rattus norvegicus [29]): Active
- Activity (Mus musculus [30]): Dde
- Activity (Mus musculus [31]): 65.32%
- Activity (Mus musculus [32]): Active
- Activity (Mus musculus [34]): Active
- Activity (Mus musculus [35]): Active
- Activity (Rattus norvegicus [36]): Dde
- Activity (Rattus norvegicus [39]): Active
- Activity (Mus musculus [41]): Active

- EC50 (HeLa [1]): 2630 nM
- inhibition [2]: 0%
- inhibition [4]: 4%
Structure (SMILES): O=C(NCc1cn(CCNc2nonc2/C(=N/O)NCc2ccc(Br)cc2)nn1)c1ccc[nH]1

Structure (SMILES): COc1ccc2cc([C@H](C)C(=O)O)ccc2c1 [NAPROXEN]
- Activity (Mus musculus [14]): 31.85%
- Activity (Mus musculus [31]): 45.29%

- EC50 (HeLa [1]): 106 nM
- inhibition [2]: 15%
- inhibition [4]: 69%
Structure (SMILES): O=C(NCc1cn(CCNc2nonc2/C(=N/O)Nc2cccc(Cl)c2)nn1)c1ccccn1

- EC50 (HeLa [1]): 663 nM
- inhibition [2]: 41%
- inhibition [3]: 15%
- inhibition [4]: 18%
Structure (SMILES): Cc1ccc(Br)cc1N/C(=N\O)c1nonc1NCCn1cc(CNC(=O)c2ccccn2)nn1
